Data reported in patent publication US8084203B2, “Methods for the determination of telomere length in a semi-automatic manner of every single cell in a immobilized cell population” (Fundacion Centro Nacional de Investigaciones Oncologicas …, priority 2008, dated 2011).

Test system: epidermal stem cell
Source text: Unless otherwise specified, all mice used in this study were males of approximately 2 months of age and from a C57BL6 genetic background. Mice of a FVB genetic background (2 months-old) were also used in Supplementary FIG. S1. Generation and characteristics of the Terc−/− and the K15-EGFP mice were previously described (Morris et al., 2004; Blasco et al., 1997).
To induce epidermal stem cell “mobilization” (activation, migration and proliferation), tail skin in the telogen (resting) phase of the hair cycle was topically treated every 48 h with TPA (20 nmol in acetone) for a total of four doses. Control mice of each genotype were treated with acetone alone. 24-hours after the last TPA treatment, mice were sacrificed and the tail skin analysed.
For telomere length analyses, samples from mouse tail and back skin, small intestine, cornea, testis and brain were harvested and fixed o/n in neutralbuffered formalin at 4° C., dehydrated through graded alcohols and xylene, and embedded in paraffin. Prior to embedding, dissected skin was cut parallel to the spine in order to obtain longitudinal hair follicle sections. The intestinal tract was flushed with PBS and rolled up in a compact circle using longitudinally oriented jejunal sections for analysis. For cornea and testis analyses, whole eyes and testis were cut in half prior to dehydration. Finally, brain was coronal-dissected to harvest the rostral hippocampus. In all cases, […] sections were used for QFISH and immunostaining analyses.
For Q-FISH, paraffin-embedded tissue sections were hybridized with a PNA-tel Cy3-labelled probe and telomere length was determined as described (González-Suárez et al., 2000; Muñoz et al., 2005; Zijlmans et al., 1997). Slides were deparaffinized in three xylene washes (3 m each), then treated for 3 m with a 100, 95 and 70% ethanol series, followed by telomere Q-FISH protocol performed as described (Samper et al., 2000). DAPI, Cy3 signals were acquired simultaneously into separate channels using a confocal ultraspectral microscope (Leica TCS-SP2-A-OBS-UV) using a PL APO 20×/0.70 PH2 as lens with Leica LCS software and maximum projections from image stacks (10 sections at steps 1.0 μm) were generated for image quantification. The DPSS-561 laser (Cy3 laser) was hold at a constant intensity to capture all the mouse tissues images.
High throughput quantitative image analysis was performed on confocal images using the Metamorph platform (version 6.3r6; Molecular Devices, Union City, Calif.). The DAPI image was used to define the nuclear area and the Cy3 image to quantify of telomere fluorescence. In all cases, background noise was subtracted from each image prior to making […] measurements. The DAPI images were signal-intensity thresholded, segmented and converted to 1-bit binary image. The binary DAPI mask was applied to the matching Cy3 to obtain a combined image with telomere fluorescence information for each
nucleus. Cy3 fluorescence intensity (telomere fluorescence) was measured as “average gray values” (total gray value/nuclei area) units (arbitrary units of fluorescence). These “average telomere fluorescence” values always represent the average Cy3 pixel intensity for the total nuclear area, and not the average value of individual telomere spot intensities, therefore ruling out that differences in nuclear size may influence telomere length measurements. A code of four colours was used to classify the nuclei according to their average telomere fluorescence. Telomere fluorescence ranges were initially set up to allocate in each range roughly ¼ of the total cells of a given tissue in wild type mice of 2 months of age. […] Telomere fluorescence ranges of a given tissue obtained in this manner were then maintained constant between genotypes, treatment and ages to facilitate comparisons.

[1] = wild-type mice, TPA-treated vs untreated, FIG. 1d, significant
[2] = wild-type mice, upon TPA treatment, FIG. 6

CCCCCCCCCCCCCC(=O)O[C@@H]1[C@@H](C)[C@@]2(O)[C@@H](C=C(CO)C[C@]3(O)C(=O)C(C)=C[C@@H]23)[C@H]2C(C)(C)[C@]12OC(C)=O [TPA]
percentage of cells with the longest telomeres at the TA compartments and the interfollicular epidermis (telomerase-deficient G1 Terc-/- mice, TPA-treated skin, FIG. 1c,d): did not show increased percentage
percentage of cells with the longest telomeres at the hair bulge (telomerase-deficient G1 Terc-/- mice, TPA-treated vs untreated skin, FIG. 1c): reduction
total number of epidermal cells showing the longest telomeres (telomerase-deficient G1 Terc-/- mice, TPA-treated vs untreated skin, P<0.01, FIG. 1e): decreased
frequency of long telomeres in all hair follicle compartments (telomere length histograms) (telomerase-deficient G1 Terc-/- mice, TPA-treated, FIG. 6): decreased frequency of long telomeres
total number of epidermal cells showing 1800-3000 a.u. of telomere fluorescence (wild-type mice, TPA-treated vs untreated skin, P<0.05, FIG. 1e): significantly increased
cells with the longest telomeres in the TA compartments (hair bulb and infundibulum) (wild-type mice, TPA-treated vs untreated tail skin): accumulation
percentage of the cells with the longest telomeres at the hair bulge (wild-type mice, TPA-treated vs untreated tail skin, longest telomeres = 1800-3000 a.u. telomere fluorescence): decreased
absolute number of cells containing the longest telomeres at the hair bulge [1]: decreased at the hair bulge
absolute number of cells containing the longest telomeres in the other epidermal compartments [1]: concomitantly increased
frequency of long telomeres in hair bulge cells (telomere length histograms) [2]: decreased frequency of long telomeres
telomere length in cells located at the TA compartment and the interfollicular epidermis (telomere length histograms) [2]: increased telomere length
